Source: ChEMBL document CHEMBL5291721, “A preclinical secondary pharmacology resource illuminates target-adverse drug reaction associations of marketed drugs” (Nat Commun, 2023)

Key:
[1] = target: T1, Cholecystokinin receptor type A (Homo sapiens, UniProt P32238)
T1 sequence (P32238 whole entry): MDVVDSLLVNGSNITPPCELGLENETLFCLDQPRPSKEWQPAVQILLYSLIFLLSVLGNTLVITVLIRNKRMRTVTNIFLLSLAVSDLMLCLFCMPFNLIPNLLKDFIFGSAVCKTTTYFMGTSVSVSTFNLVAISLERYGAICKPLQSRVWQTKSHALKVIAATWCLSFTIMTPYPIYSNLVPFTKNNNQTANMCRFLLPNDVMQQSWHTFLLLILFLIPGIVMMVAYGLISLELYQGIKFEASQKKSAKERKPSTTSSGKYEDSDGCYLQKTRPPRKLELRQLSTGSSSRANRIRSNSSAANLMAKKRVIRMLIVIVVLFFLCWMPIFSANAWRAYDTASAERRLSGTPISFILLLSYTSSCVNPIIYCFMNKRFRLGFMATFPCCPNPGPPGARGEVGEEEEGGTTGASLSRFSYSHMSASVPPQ

[2] = target: Cannabinoid receptor 1 (Homo sapiens, UniProt P21554)
[3] = target: T2, Alpha-1A adrenergic receptor (Homo sapiens, UniProt P35348)
T2 sequence (P35348 whole entry): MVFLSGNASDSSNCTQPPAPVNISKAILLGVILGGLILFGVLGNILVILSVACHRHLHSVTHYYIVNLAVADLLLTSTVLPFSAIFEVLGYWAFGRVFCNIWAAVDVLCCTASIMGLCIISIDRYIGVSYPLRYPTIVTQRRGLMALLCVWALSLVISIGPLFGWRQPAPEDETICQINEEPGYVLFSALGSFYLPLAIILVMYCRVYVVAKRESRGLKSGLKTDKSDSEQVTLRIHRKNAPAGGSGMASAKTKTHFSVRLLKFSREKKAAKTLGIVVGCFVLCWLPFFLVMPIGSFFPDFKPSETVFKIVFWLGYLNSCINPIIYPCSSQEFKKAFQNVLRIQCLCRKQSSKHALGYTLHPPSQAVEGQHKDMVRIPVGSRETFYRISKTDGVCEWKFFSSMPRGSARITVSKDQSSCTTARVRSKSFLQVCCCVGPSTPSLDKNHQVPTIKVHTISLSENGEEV

[4] = target: T3, 5-hydroxytryptamine receptor 2C (Homo sapiens, UniProt P28335)
T3 sequence (P28335 whole entry): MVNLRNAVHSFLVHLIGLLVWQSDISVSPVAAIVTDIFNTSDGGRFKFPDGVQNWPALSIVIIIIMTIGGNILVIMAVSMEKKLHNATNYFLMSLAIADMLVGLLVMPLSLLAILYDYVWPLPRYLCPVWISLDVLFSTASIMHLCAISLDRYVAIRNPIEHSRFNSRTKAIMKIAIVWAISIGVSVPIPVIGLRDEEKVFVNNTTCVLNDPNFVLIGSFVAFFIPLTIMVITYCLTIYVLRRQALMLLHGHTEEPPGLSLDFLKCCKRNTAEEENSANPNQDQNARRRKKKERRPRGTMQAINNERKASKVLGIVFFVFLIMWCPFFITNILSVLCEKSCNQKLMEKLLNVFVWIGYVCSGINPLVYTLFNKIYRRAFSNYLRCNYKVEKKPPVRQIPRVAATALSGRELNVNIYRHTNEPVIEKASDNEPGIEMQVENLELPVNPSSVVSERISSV

[5] = target: Mu-type opioid receptor (Homo sapiens, UniProt P35372)
[6] = target: T4, Alpha-2C adrenergic receptor (Homo sapiens, UniProt P18825); assay type: functional
T4 sequence (P18825 whole entry): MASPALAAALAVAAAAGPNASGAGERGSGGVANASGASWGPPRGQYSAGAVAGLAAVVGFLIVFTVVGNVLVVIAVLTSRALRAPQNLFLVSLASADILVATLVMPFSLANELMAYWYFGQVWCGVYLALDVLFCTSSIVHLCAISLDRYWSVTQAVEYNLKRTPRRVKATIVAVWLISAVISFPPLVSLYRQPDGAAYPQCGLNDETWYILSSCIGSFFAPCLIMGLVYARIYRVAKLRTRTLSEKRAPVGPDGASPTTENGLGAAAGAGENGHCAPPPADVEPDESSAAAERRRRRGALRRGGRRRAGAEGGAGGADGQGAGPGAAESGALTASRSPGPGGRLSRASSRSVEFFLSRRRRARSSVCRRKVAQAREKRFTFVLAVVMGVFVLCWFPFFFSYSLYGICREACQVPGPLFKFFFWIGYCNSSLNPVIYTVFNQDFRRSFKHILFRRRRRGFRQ

[7] = target: Melanocortin receptor 4 (Homo sapiens, UniProt P32245)
[8] = target: T5, Gastrin/cholecystokinin type B receptor (Homo sapiens, UniProt P32239)
T5 sequence (P32239 whole entry): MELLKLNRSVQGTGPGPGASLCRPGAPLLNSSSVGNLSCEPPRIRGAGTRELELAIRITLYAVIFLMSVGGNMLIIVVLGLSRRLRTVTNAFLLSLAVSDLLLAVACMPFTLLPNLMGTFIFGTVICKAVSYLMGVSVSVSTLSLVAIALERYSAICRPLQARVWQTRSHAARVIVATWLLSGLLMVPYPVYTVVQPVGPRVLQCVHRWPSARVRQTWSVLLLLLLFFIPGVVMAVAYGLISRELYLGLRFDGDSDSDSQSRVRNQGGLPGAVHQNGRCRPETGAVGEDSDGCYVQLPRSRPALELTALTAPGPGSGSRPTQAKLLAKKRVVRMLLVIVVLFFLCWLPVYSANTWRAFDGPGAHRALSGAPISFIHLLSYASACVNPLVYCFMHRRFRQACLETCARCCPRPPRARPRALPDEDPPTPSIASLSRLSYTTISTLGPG

[9] = target: Beta-2 adrenergic receptor (Homo sapiens, UniProt P07550); assay type: functional, cell-based
Note: assay procedure not described here.

Sequence of Melanocortin receptor 4 (P32245 whole entry): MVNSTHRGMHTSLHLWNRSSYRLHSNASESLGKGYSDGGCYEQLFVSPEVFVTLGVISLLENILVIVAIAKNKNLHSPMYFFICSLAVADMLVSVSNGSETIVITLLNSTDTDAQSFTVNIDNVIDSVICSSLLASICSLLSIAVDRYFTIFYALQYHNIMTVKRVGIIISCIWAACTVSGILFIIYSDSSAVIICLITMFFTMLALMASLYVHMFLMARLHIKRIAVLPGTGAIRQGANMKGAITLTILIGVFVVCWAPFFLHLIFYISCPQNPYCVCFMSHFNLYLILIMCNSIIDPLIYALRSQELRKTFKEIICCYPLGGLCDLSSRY
Sequence of Cannabinoid receptor 1 (P21554 whole entry): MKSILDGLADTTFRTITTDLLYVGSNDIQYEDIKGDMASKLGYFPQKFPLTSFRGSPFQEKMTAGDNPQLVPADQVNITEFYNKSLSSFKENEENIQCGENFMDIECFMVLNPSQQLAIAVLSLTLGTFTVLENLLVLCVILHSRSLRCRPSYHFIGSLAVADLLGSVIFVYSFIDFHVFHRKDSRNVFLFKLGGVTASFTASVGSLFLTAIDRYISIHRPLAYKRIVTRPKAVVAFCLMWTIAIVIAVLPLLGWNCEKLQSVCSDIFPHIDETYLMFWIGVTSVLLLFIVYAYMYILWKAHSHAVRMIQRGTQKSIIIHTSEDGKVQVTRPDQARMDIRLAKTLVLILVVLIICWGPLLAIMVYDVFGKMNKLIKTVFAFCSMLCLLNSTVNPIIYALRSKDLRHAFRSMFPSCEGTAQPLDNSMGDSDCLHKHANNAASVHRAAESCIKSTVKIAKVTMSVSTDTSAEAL
Sequence of Mu-type opioid receptor (P35372 whole entry): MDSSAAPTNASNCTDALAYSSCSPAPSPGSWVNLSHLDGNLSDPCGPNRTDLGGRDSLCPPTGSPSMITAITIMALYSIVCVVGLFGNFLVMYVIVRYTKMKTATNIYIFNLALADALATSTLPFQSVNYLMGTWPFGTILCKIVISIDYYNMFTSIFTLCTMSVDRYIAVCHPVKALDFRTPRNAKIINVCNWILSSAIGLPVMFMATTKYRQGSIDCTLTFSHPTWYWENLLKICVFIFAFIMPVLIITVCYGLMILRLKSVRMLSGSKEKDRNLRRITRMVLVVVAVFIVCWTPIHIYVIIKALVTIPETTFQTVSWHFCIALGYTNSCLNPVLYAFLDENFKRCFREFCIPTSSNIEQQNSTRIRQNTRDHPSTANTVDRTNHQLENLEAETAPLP
Sequence of Beta-2 adrenergic receptor (P07550 whole entry): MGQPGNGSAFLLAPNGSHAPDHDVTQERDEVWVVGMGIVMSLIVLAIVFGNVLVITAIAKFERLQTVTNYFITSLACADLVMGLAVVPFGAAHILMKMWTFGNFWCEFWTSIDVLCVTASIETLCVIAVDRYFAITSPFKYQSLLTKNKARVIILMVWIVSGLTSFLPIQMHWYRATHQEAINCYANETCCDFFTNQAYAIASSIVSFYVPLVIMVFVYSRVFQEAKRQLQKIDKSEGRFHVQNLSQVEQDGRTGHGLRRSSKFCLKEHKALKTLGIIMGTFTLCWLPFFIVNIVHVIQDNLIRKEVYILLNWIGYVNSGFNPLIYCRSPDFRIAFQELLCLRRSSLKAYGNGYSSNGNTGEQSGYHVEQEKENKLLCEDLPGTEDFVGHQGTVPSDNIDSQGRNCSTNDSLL

Structure (SMILES) | AC50 [1] | AC50 [2] | AC50 [3] | AC50 [4] | AC50 [5] | AC50 [6] | AC50 [7] | AC50 [8] | AC50 [9]
O=C(CCCCC(=O)Nc1c(I)cc(I)c(C(=O)O)c1I)Nc1c(I)cc(I)c(C(=O)O)c1I [IODIPAMIDE] | > 10 µM | > 10 µM | > 30 µM | > 30 µM | > 30 µM | > 10 µM | > 10 µM |  | 
CC(C)[N+](C)(CCC(C(N)=O)(c1ccccc1)c1ccccc1)C(C)C [ISOPROPAMIDE] | > 10 µM | > 10 µM | > 10 µM | > 30 µM | > 30 µM | > 10 µM | > 10 µM |  | 
COC(=O)C1=C(C)NC(C)=C(C(=O)OC(C)C)C1c1cccc2nonc12 (stereo unspecified) [ISRADIPINE] | > 30 µM | > 10 µM | > 30 µM | > 30 µM | > 30 µM | > 30 µM | > 30 µM | 34.1 µM | 
O=C(O)Cc1cn(-c2ccccc2)nc1-c1ccc(Cl)cc1 [LONAZOLAC] | > 30 µM |  |  | > 30 µM |  | > 30 µM |  | > 10 µM | > 30 µM
CC1=CC(=O)c2ccccc2C1=O [MENADIONE] | > 10 µM | > 10 µM | > 30 µM | > 30 µM | > 30 µM | > 30 µM | > 10 µM |  | 
COc1ccccc1OCC(O)COC(N)=O (stereo unspecified) [METHOCARBAMOL] | > 10 µM | > 10 µM | > 10 µM | > 30 µM | > 30 µM | > 10 µM | > 10 µM |  | 
CN1CCCN=C1COC(=O)C(O)(c1ccccc1)C1CCCCC1 (stereo unspecified) [OXYPHENCYCLIMINE] | > 10 µM | > 10 µM | > 10 µM | > 30 µM | > 30 µM | > 10 µM | > 10 µM |  | 
CN1CCC2=C(C1)C(c1ccccc1)c1ccccc12 (stereo unspecified) [PHENINDAMINE] | > 10 µM | > 10 µM | > 10 µM | > 30 µM | > 30 µM | 12 µM | > 10 µM |  | 
CN1C(=O)CC(c2ccccc2)C1=O (stereo unspecified) [PHENSUXIMIDE] | > 10 µM | > 10 µM | > 10 µM | > 30 µM | > 30 µM | > 10 µM | > 10 µM |  | 
O=C(O)CCCc1ccccc1 [PHENYLBUTANOIC ACID] | > 10 µM | > 30 µM | 14 µM | > 30 µM | > 10 µM | > 30 µM | > 10 µM | > 10 µM | 
C#CCN(C)[C@H](C)Cc1ccccc1 [SELEGILINE] | > 10 µM | > 10 µM | 12.7 µM | > 30 µM | > 30 µM | 2.9 µM | > 10 µM |  | 
CN[C@@H]1[C@H](O)[C@H](NC)[C@H]2O[C@@]3(O)C(=O)C[C@@H](C)O[C@H]3O[C@@H]2[C@H]1O [SPECTINOMYCIN] | > 10 µM | > 10 µM | > 10 µM | > 30 µM | > 30 µM | > 10 µM | > 10 µM |  | 
CC(=O)NS(=O)(=O)c1ccc(N)cc1 [SULFACETAMIDE] | > 10 µM | > 10 µM | > 10 µM | > 30 µM | > 30 µM | > 10 µM | > 10 µM |  | 
